For eight molecules, TGI and GI50 results are on record in PubChem BioAssay (NCI).

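Values below derive from 48-hour exposures of cells grown in 96-well plates, with endpoints linearly interpolated between the two concentrations bracketing the appropriate inhibition level. The concentration for 50% growth inhibition is given as GI50. TGI marks complete inhibition of growth.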

Test systems include CAKI-1 renal; U251 CNS; NCI-H522 lung; HCC-2998 colon; MDA-MB-231 breast; MALME-3M melanoma; SN12C renal; SK-MEL-5 melanoma; SW-620 colon; SK-MEL-28 melanoma; HCT-116 colon; EKVX NSCLC; IGROV1 ovarian; UO-31 renal.
Common to all, as to assay: NCI tumour cell line growth inhibition, 48 h

`Cc1cn(C2CC(N)C(C(=O)NCC(=O)O)O2)c(=O)[nH]c1=O` (stereo unspecified): the TGI with CAKI-1 renal, in the assay with U251 CNS, with NCI-H522 lung, in the assay with HCC-2998 colon, in the assay on MDA-MB-231 breast and in the assay with MALME-3M melanoma was above 100 µM throughout. Further, the TGI in the assay on SN12C renal, in the assay on SK-MEL-5 melanoma, in the assay with SW-620 colon, in the assay on SK-MEL-28 melanoma, with HCT-116 colon and with EKVX NSCLC was above 100 µM in each case. Besides, the TGI in the assay with IGROV1 ovarian and with UO-31 renal was above 100 µM in each case.

Regarding `COc1ccc(-c2ccc(-c3ccc(C(=N)N)nc3)s2)cc1Cl`, the GI50 is 1.74 µM in the assay on CAKI-1 renal; 1.7 µM in the assay with MDA-MB-231 breast; 1.78 µM with MALME-3M melanoma; 1.82 µM in the assay with SK-MEL-5 melanoma; 1.79 µM in the assay with SW-620 colon; 1.55 µM in the assay on UO-31 renal. Besides, the TGI in the assay with CAKI-1 renal worked out at 3.12 µM; in the assay with MDA-MB-231 breast, 3.38 µM; in the assay on MALME-3M melanoma, 3.32 µM; with SK-MEL-5 melanoma, 3.32 µM; with SW-620 colon it was 3.37 µM; with UO-31 renal, 2.91 µM.

As to `O=S(OC12CC3CC(CC(C3)C1)C2)c1cc(Cl)cc(Cl)c1OCc1ccccc1` (stereo unspecified), the TGI with U251 CNS is above 100 µM; in the assay with NCI-H522 lung it was 37.1 µM; in the assay with HCC-2998 colon, above 100 µM; with MALME-3M melanoma, above 100 µM; in the assay on SN12C renal it was above 100 µM; in the assay with SK-MEL-28 melanoma, above 100 µM. In addition, the TGI in the assay with HCT-116 colon, with EKVX NSCLC and in the assay on UO-31 renal was above 100 µM each time.

Consider `C=CCN1C(=O)/C(=C/c2ccco2)N=C1SC1OC(COC(C)=O)C(OC(C)=O)C(OC(C)=O)C1OC(C)=O` (stereo unspecified), for which the TGI is above 100 µM in the assay with CAKI-1 renal; above 100 µM in the assay on U251 CNS; 51.7 µM in the assay on NCI-H522 lung; above 100 µM in the assay on HCC-2998 colon; above 100 µM in the assay on MDA-MB-231 breast; above 100 µM in the assay on MALME-3M melanoma. Further, the TGI in the assay on SK-MEL-5 melanoma, in the assay on SW-620 colon, in the assay on SK-MEL-28 melanoma, in the assay with EKVX NSCLC and in the assay on IGROV1 ovarian was above 100 µM in each case.

As to `CC(=O)OCC1OC(OCCCCCCO)C(OC(C)=O)C(OC(C)=O)C1OC(C)=O` (stereo unspecified), the TGI with CAKI-1 renal, in the assay with U251 CNS, with NCI-H522 lung, in the assay with HCC-2998 colon, with MDA-MB-231 breast and in the assay on SN12C renal was above 100 µM each time. Also, the TGI in the assay with SW-620 colon, in the assay on SK-MEL-28 melanoma, in the assay with HCT-116 colon, in the assay with EKVX NSCLC, in the assay with IGROV1 ovarian and in the assay on UO-31 renal was above 100 µM in each case.

Take `O=[N+]([O-])c1ccccc1S(=O)(=O)c1ccccc1`: the TGI in the assay on U251 CNS, in the assay with HCC-2998 colon, in the assay on MALME-3M melanoma, in the assay with SN12C renal, in the assay on SK-MEL-5 melanoma and with SW-620 colon was above 100 µM in each case. For the same molecule, the TGI in the assay on SK-MEL-28 melanoma is above 100 µM; in the assay on HCT-116 colon, above 100 µM; in the assay with EKVX NSCLC, above 100 µM; with IGROV1 ovarian, above 100 µM; with UO-31 renal, 90.6 µM.

For `Cc1ccc(NC(=O)C(Cc2c[nH]c3ccccc23)NC(=O)Oc2ccccc2)cc1C` (stereo unspecified), the TGI with CAKI-1 renal is above 100 µM; in the assay on U251 CNS, above 100 µM; with NCI-H522 lung, above 100 µM; in the assay on MDA-MB-231 breast, above 100 µM; in the assay on MALME-3M melanoma, 99.5 µM; in the assay on SN12C renal, above 100 µM. Besides, the TGI in the assay with SK-MEL-5 melanoma, with SW-620 colon, with SK-MEL-28 melanoma, in the assay with HCT-116 colon, in the assay with EKVX NSCLC and with IGROV1 ovarian was above 100 µM throughout. Moreover, in the assay on UO-31 renal, the TGI was above 100 µM.

As to `CC1(C)C(=O)c2ccccc2OC1N1CCN(C2Oc3ccccc3C(=O)C2(C)C)CC1` (stereo unspecified), the TGI in the assay on CAKI-1 renal, in the assay with U251 CNS, in the assay with NCI-H522 lung, in the assay with HCC-2998 colon, with MDA-MB-231 breast and in the assay with MALME-3M melanoma was above 100 µM each time. In addition, the TGI in the assay on SN12C renal, in the assay with SK-MEL-5 melanoma, in the assay on SW-620 colon, in the assay with SK-MEL-28 melanoma, with HCT-116 colon and with EKVX NSCLC was above 100 µM in each case. Also, the TGI with IGROV1 ovarian and with UO-31 renal was above 100 µM each time.
